Read-outs that look alike come from different tables or passages of the source. Blank lines part the entries; values can stand above or below the molecule they belong to.
Assays:
[1] = tested on: moderately to severely active PsA; experiment: Phase 2 clinical study NCT03101670, ACR20/50/70 response; assay type: in vivo, human; details: for ACR20 / ACR50 / ACR70: 200 mg q.d.
Source text: For the purpose of the present invention, the terms “ACR20”, “ACR50” and “ACR70” as used herein are scores which indicate how much a patient's symptoms of peripheral arthritis have improved according to criteria set out by the American College of Rheumatology (ACR). The ACR score represents a percentage. An ACR20 score means that a person's arthritis symptoms have improved by 20%, an ACR50 score means it has improved by 50%, and an ACR70 score means it has improved by 70%. Specifically, to qualify for an ACR20 score, a person must have at least 20% fewer tender joints (at least 20% improvement from baseline in tender joint counts, TJC68) and at least 20% fewer swollen joints (at least 20% improvement from baseline in swollen joint counts, SJC66). In addition the patient must show a 20% improvement in at least three of the following five areas: the person's overall (global) assessment of his or her own disease activity (on a 0-100 mm visual analog scale (VAS)), the physician's global assessment of the person's disease activity (on a 0-100 mm VAS), the person's assessment of his or her own PsA pain intensity (on a 0-100 mm VAS), the person's assessment of his or her own physical functioning as measured by HAQ-DI, and the results of a C-reactive protein (CRP) blood test (in mg/dL or mg/L). ACR50 and ACR70 scores use the same criteria but require 50% and 70% improvement, respectively.
(§1) This is a multicenter, Phase 2, double-blind, placebo-controlled study in subjects with moderately to severely active PsA who have an inadequate response or are intolerant to conventional disease-modifying therapy. […] Randomization to treatment groups are stratified by current cDMARD use (yes or no) and prior anti-TNF pharmaceutical use (yes or no).
Efficacy assessments to estimate signs and symptoms of PsA and peripheral arthritis, psoriasis, enthesitis, dactylitis, spondylitis, and physical function are carried out at Baseline (Day 1) and at Weeks 1, 2, 4, 8, 12, 16, or at the early discontinuation visit (EDV) if applicable, unless otherwise noted. The individual components of the ACR response criteria are obtained at screening and throughout the study.
The patient's assessment of pain is performed using a 0-100 mm VAS ranging from “no pain” to “unbearable pain” after the question “Please indicate with a vertical mark (|) through the horizontal line the most pain you had from your psoriatic arthritis today”. The length of the line from 0 to the patient's mark is recorded. This assessment should be completed before the joint examination. This pain score is also used to derive the ACR20/50/70.
The signs and symptoms of peripheral arthritis are measured using ACR20/50/70. The ACR response is a measurement of improvement in multiple disease assessment criteria.
A positive ACR20 response is defined as at least 20% improvement from baseline in both swollen (SJC66) and tender (TJC68) joint counts, and at least 20% improvement in 3 or more of the following 5 criteria: • Patient's Global Assessment of Disease Activity (0-100 mm VAS) • Physician's Global Assessment of Disease Activity (0-100 mm VAS) • Patient's Global Assessment of PsA pain intensity (0-100 mm VAS) • Patient's assessment of physical function as measured by HAQ-DI • CRP in mg/dL or mg/L
A positive ACR50 and ACR70 response is derived from the definition of the ACR20, but requiring at least 50% and 70% improvement, respectively.

[2] = tested on: moderately to severely active PsA; experiment: Phase 2 clinical study NCT03101670, Minimal Disease Activity (MDA); assay type: in vivo, human; details: 200 mg q.d.
Source text: As used herein, the term ‘MDA’ refers to the Minimal Disease Activity, which is a measure for disease remission. For the purpose of the present invention a patient will be classified as having achieved MDA when 5 out of 7 of the following criteria are met: • TJC68 ≤1 • SJC66 ≤1 • PASI ≤1 or BSA ≤3% • Patient's Global Assessment of PsA pain intensity score ≤15 (0-100 mm VAS) • Patient's Global Assessment of Disease Activity ≤20 (0-100 mm VAS) • HAQ-DI ≤0.5 • SPARCC Enthesitis Index ≤1.
as §1
The disease activity in PsA will be measured using the MDA, which is a measure to indicate disease remission. The MDA is based on a composite score of 7 domains. A patient will be classified as having achieved MDA when 5 out of 7 of the following criteria are met: • TJC68 ≤1 • SJC66 ≤1 • PASI ≤1 or BSA ≤3% • Patient's Global Assessment of PsA pain intensity score ≤15 (0-100 mm VAS) • Patient's Global Assessment of Disease Activity ≤20 (0-100 mm VAS) • HAQ-DI ≤0.5 • SPARCC Enthesitis Index ≤1

[3] = tested on: psoriasis in PsA subjects with ≥3% BSA at baseline; experiment: Phase 2 clinical study NCT03101670, psoriasis (PASI); assay type: in vivo, human; details: 200 mg q.d.
Source text: As used herein, the term ‘PASI’ refers to the Psoriasis Area and Severity Index score and is an index used to express the severity of psoriasis. It combines the severity (erythema, induration and desquamation) and percentage of affected area. Further details on the determination of PASI is provided in example 1. The PASI score represents the change from baseline. ‘PASI50’ refers to the portion of patients who achieved 50% improvement in the PASI score upon the tested treatment. ‘PASI75’ refers to the portion of patients who achieved 75% improvement in the PASI score upon the tested treatment. ‘PASI90’ refers to the portion of patients who achieved 90% improvement in the PASI score upon the tested treatment.
as §1
The PASI score is used to measure the severity and extent of psoriasis. Representative area of psoriasis is selected for each body region (head, arms, trunk and legs). The intensity of erythema, induration and desquamation of the psoriasis is assessed as none (0), mild (1), moderate (2), severe (3) or very severe (4).
A numerical score, ranging from 0 to 100%, will be used to measure the proportion of the subject's total BSA involved with psoriasis, as assessed by the investigator.
Four sites of affection, the head (h), upper limb (u), trunk (t) and lower limbs (l), are separately scored by using 3 parameters, erythema (E), induration (I) and desquamation (D), each of which is graded on a severity scale of 0 to 4 (0=none, 1=mild, 2=moderate, 3=severe and 4=very severe) (Section 1.4.6). The area-wise percentage involvement of the involved sites is calculated as: 1=less than 10% area; 2=10-29%; 3=30-49%; 4=50-69%; 5=70-89%; and 6=more than 90%. The final formula for PASI score is: PASI=0.1×(Eh+Ih+Dh)×Ah+0.2×(Eu+Iu+Du)×Au+0.3×(Et+It+Dt)×At+0.4×(El+Il+Dl)×Al
The total PASI score ranges between 0 (no disease) and 72 (maximal disease), but is considered unreliable when BSA <3%. Therefore, the PASI is only analysed in the subpopulation of subjects with psoriasis involving ≥3% BSA at baseline.
The following PASI parameters can be derived: • PASI change from baseline • PASI 50% improvement (PASI50) • PASI 75% improvement (PASI75) • PASI 90% improvement (PASI90) • PASI 100% improvement or complete resolution of all disease (PASI100)

[4] = tested on: enthesitis in PsA patients; experiment: Phase 2 clinical study NCT03101670, enthesitis by SPARCC Enthesitis Index; details: human, in vivo
Description: As used herein, the term ‘SPARCC Enthesitis Index’ refers to a clinical scoring after examination of (entheseal) tenderness at 16 peripheral sites, which are evaluated for tenderness by palpation, and scored 0 (non-tender) or 1 (tender). The total enthesitis score is the sum of all site scores and is maximally 16. The higher the score, the higher the enthesitis burden. (Maksymowych W P et al. Development and validation of the Spondyloarthritis Research Consortium of Canada (SPARCC) Enthesitis Index. Ann Rheum Dis 2009; 68:948-53)
as §1
Enthesitis is assessed using the SPARCC Enthesitis Index. Sixteen body sites is evaluated for tenderness by palpation, and scored with 0 (non-tender) or 1 (tender). The total enthesitis score is the sum of all site scores and is maximally 16. The higher the score, the higher the enthesitis burden.
Enthesitis is assessed using the SPARCC Enthesitis Index and Leeds Enthesitis Index (LEI). The Enthesitis parameters are analyzed only in the subpopulation of subjects who have enthesitis at baseline (LEI >0). […]

[5] = tested on: enthesitis in PsA patients; experiment: Phase 2 clinical study NCT03101670, enthesitis by Leeds Enthesitis Index (LEI); assay type: in vivo, human; details: for LEI score (change from baseline): 200 mg q.d.
Source text: As used herein, the term ‘Leeds Enthesitis Index’ or ‘LEI’ refers to a clinical scoring after examination of (entheseal) tenderness at six sites: 2 sites at each of the lateral epicondyles of the humerus, medial condyles of the femur and the insertion of the Achilles tendon. The LEI score range is 0-6. The higher the score, the higher the enthesitis burden.
as §1
In addition to the 16 sites used to assess enthesitis when evaluating the SPARCC Enthesitis Index, medial femoral condyles (left and right) is also assessed and evaluated in a similar way as the other 16 sites to allow assessing the Leeds enthesitis index (LEI).
Enthesitis is assessed using the SPARCC Enthesitis Index and Leeds Enthesitis Index (LEI). The Enthesitis parameters are analyzed only in the subpopulation of subjects who have enthesitis at baseline (LEI >0). Analysis focusses on the changes from baseline.

[6] = tested on: moderately to severely active PsA; experiment: Phase 2 clinical study NCT03101670, physical function (HAQ-DI); assay type: in vivo, human; details: 200 mg q.d.
Source text: As used herein, the term 'HAQ-ID' refers to the Health Assessment Questionnaire […] Disability Index, which is a measure for the physical functioning of a patient. The HAQ-DI is a 20-question instrument assessing the degree of difficulty a person has in accomplishing tasks in 8 function areas (B. Bruce and J. Fries, “The Stanford Health Assessment Questionnaire: dimensions and practical applications,” Health Qual Life Outcomes, p. 1:20, 2003). The HAQ-DI total score ranges from 0 to 3 with higher scores indicating greater dysfunction. This is a multicenter, Phase 2, double-blind, placebo-controlled study in subjects with moderately to severely active PsA who have an inadequate response or are intolerant to conventional disease-modifying therapy. […] Randomization to treatment groups are stratified by current […] use (yes or no) and prior anti-TNF pharmaceutical use (yes or no). The HAQ-DI is used to monitor the subject's self-assessed physical function or disability. This 20-question instrument assesses the degree of difficulty a person has in accomplishing tasks in 8 function areas (getting dressed, arising, eating, walking, […], hygiene, reaching, gripping, errands and chores). Responses are scored on a 4-point Likert scale from 0, indicating no difficulty, to 3, indicating inability to perform a task in that area. The need for aids/devices or help from another person is also recorded. The HAQ-DI total score ranges from 0 to 3 with higher scores indicating greater dysfunction. HAQ-DI is scored on a scale from 0 to 3 and changes from baseline are reported. A decrease by at least 0.22 points versus the baseline is considered clinically meaningful.

JAK1 = JAK1 (Homo sapiens, UniProt P23458); experiment: inhibition of JAK1 signaling by the metabolite relative to the parent; details: relative to compound I
JAK1, sequence (P23458 whole entry, species assumed): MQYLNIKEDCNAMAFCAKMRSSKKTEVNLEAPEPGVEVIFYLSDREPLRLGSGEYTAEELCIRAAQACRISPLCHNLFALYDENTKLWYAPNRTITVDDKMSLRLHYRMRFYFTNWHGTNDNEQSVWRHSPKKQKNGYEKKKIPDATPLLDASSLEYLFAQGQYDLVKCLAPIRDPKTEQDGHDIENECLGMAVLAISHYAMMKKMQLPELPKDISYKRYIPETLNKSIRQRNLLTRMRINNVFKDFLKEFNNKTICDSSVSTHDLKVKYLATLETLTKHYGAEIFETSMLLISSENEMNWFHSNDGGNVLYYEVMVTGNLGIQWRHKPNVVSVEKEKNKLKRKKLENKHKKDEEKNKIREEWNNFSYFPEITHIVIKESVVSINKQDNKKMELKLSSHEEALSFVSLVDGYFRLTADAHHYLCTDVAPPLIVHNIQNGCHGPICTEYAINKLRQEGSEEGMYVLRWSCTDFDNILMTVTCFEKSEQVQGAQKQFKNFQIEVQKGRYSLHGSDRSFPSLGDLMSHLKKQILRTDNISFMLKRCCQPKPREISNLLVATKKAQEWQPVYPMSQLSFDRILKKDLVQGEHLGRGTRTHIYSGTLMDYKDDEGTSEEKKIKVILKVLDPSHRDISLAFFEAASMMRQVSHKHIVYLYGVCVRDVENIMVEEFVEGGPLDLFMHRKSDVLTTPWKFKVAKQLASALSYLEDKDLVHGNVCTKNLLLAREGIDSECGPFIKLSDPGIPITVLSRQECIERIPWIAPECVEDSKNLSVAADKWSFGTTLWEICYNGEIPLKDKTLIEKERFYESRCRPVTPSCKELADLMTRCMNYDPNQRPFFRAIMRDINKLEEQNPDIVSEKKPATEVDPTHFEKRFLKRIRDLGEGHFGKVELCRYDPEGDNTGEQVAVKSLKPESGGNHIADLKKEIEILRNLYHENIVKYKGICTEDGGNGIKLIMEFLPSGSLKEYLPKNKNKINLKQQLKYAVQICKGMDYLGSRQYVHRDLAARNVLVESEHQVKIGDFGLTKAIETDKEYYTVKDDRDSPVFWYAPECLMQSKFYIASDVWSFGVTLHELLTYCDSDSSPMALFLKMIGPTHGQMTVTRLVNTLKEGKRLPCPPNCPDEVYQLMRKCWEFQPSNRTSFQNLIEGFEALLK
Source text: (§2) Though the potency of this metabolite is lower than the parent molecule, the overall exposure and peak plasma concentration in humans is higher than seen in all tested animal species. As a consequence, dedicated pharmacology and toxicology studies have been performed with compound II. […] The compound according to formula II is described in WO2013/189771.

[7] = abundance of the metabolite relative to the parent compound in humans; assay type: in vivo, human; details: relative to compound I
Source text: as §2

[8] = tested on: active psoriatic arthritis; details: cited from earlier work
[9] = W12, subjects with ≥3% BSA at baseline
[10] = W16, subjects with ≥3% BSA at baseline

SMILES: O=C(Nc1nc2cccc(-c3ccc(CN4CCS(=O)(=O)CC4)cc3)n2n1)C1CC1 [compound I, cyclopropanecarboxylic acid {5-[4-(1,1-dioxo-thiomorpholin-4-ylmethyl)-phenyl]-[1,2,4]triazolo[1,5-a]pyridin-2yl}-amide]
- ACR20 ([1]; Week 1): 26.2%
- ACR50 ([1]; Week 1): 6.2%
- ACR70 ([1]; Week 1): 1.5%
- ACR20 ([1]; Week 2): 33.8%
- ACR50 ([1]; Week 2): 10.8%
- ACR70 ([1]; Week 2): 3.1%
- ACR20 ([1]; Week 4): 61.5%
- ACR50 ([1]; Week 4): 20.0%
- ACR70 ([1]; Week 4): 7.7%
- ACR20 ([1]; Week 8): 67.7%
- ACR50 ([1]; Week 8): 32.3%
- ACR70 ([1]; Week 8): 12.3%
- ACR20 ([1]; Week 12): 83.1%
- ACR50 ([1]; Week 12): 41.5%
- ACR70 ([1]; Week 12): 10.8%
- ACR50 ([1]; Week 16): 47.7%
- ACR70 ([1]; Week 16): 23.1%
- ACR20 and ACR50 difference from placebo ([1]; as from week 1): statistically significant difference from placebo
- difference in ACR20, ACR50 and ACR70 score versus placebo ([1]; week 16): statistically significant difference
- MDA ([2]; Week 12): 21.5%
- MDA ([2]; Week 16): 23.1%
- PASI75 [3, 9]: 33.3%
- PASI mean cfb [3, 9]: −5.5
- PASI75 [3, 10]: 45.2%
- PASI mean cfb [3, 10]: −6.3
- effect on enthesitis compared with placebo [4]: improved enthesitis compared with placebo
- LEI score (change from baseline) ([5]; Week 4, enthesitis at baseline (LEI >0)): −1.7
- LEI score (change from baseline) ([5]; Week 8, enthesitis at baseline (LEI >0)): −2.1
- LEI score (change from baseline) ([5]; Week 12, enthesitis at baseline (LEI >0)): −1.9
- LEI score (change from baseline) ([5]; Week 16, enthesitis at baseline (LEI >0)): −1.8
- Enthesitis resolved per LEI, treatment difference versus placebo ([5]; patients with enthesitis at baseline): 26%
- HAQ-DI (change from baseline) ([6]; Week 1): −0.19
- HAQ-DI (change from baseline) ([6]; Week 2): −0.30
- HAQ-DI (change from baseline) ([6]; Week 4): −0.44
- HAQ-DI (change from baseline) ([6]; Week 8): −0.50
- HAQ-DI (change from baseline) ([6]; Week 12): −0.53
- HAQ-DI (change from baseline) ([6]; Week 16): −0.57

- potency on JAK1 signaling, fold less potent than parent compound (JAK1): approximately 20 fold
- abundance, fold more abundant than the parent compound [7]: about 10 fold
SMILES: Nc1nc2cccc(-c3ccc(CN4CCS(=O)(=O)CC4)cc3)n2n1 [compound II]

SMILES: C[C@@H]1CCN(C(=O)CC#N)C[C@@H]1N(C)c1ncnc2[nH]ccc12 [tofacitinib]
- ACR20 response rate ([8]; month 3, dosed at 5 mg): 50%
- ACR20 response rate ([8]; month 3, dosed at 10 mg): 61%
